Consider two compounds from publication PMC6430500, “3-Fluoro-4-hydroxyprolines: Synthesis, Conformational Analysis, and Stereoselective Recognition by the VHL E3 Ubiquitin Ligase for Targeted Protein Degradation” (Journal of the American Chemical Society, 2018).

One test has as its target T1, VBC (Homo sapiens, UniProt P40337).
T1 construct: VHL (54–213), ElonginC (17–112) and; His6 (N, cleaved yes); made in house; host or cells: Escherichia coli BL21(DE3)
The experiment in a line: ITC of PROTACs, binary complex PROTAC–VBC. It counts as binding. Particulars: for ΔG / ΔH / –TΔS / Kd: PROTAC in cell, VBC in syringe; for Kd: mean ± SEM. An excerpt:
(§1) structure (C2 R, C3 S, C4 R) assumed on the basis of unchanging stereogenic centres in the synthesis.
(§2) Final R(F) = 0.033, wR(F 2) = 0.085 for 275 parameters and 3901 reflections with I > 2σ(I) (corresponding R-values based on all 4067 reflections = 0.035 and 0.086, respectively), CCDC […]
(§3) Protein expression and purification.
(§4) Wild-type versions of human proteins VHL (UniProt accession number: P40337), ElonginC […]
(§5) expression. For expression of VBC, N-terminally His6-tagged VHL (54–213), ElonginC (17–112) and ElonginB (1–104) were co- expressed in Escherichia coli BL21(DE3) at 24 °C for 16 h using 0.3 mM isopropyl β-D -1-thiogalactopyranoside (IPTG). E. coli cells were lysed using a pressure cell homogenizer (Stansted Fluid Power) and lysate clarified by centrifugation. His6-tagged VCB was purified on a HisTrap FF affinity column (GE Healthcare) by elution with an imidazole gradient. The His6tag was removed using TEV protease and the untagged complex dialyzed into low -concentration imidazole buffer. VCB was then flowed through the HisTrap FF column a second time, allowing impurities to bind, as the complex eluted without binding. VCB was then additionally purified by anion exchange and size-exclusion chromatography using ResourceQ and Superdex-75 columns (GE Healthcare), respectively. The final purified complex was stored in 20 mM Bis–Tris, pH 7, 150 mM sodium chloride and 1 mM dithiothreitol (DTT). Brd2BD1 (71–194), and Brd4BD2 (333–460) were expressed with an N-terminal His6 tag in E. coli BL21(DE3) at 18 °C for 20 h using 0.2 mM IPTG.
(§6) His6-tagged BDs were purified on nickel Sepharose 6 fast flow beads (GE Healthcare) by elution with increasing concentrations of imidazole. For crystallography the His6-tagged BD was cleaved with TEV protease and dialyzed into low-concentration imidazole buffer. The BD was then flowed over the nickel beads a second time to remove impurities and protease. BDs were then additionally purified by size-exclusion chromatography using a Superdex-75 column. The BDs were purified by size-exclusion chromatography using a Superdex-75 column. The final purified proteins were stored in 20 mM 4-(2-hydroxyethyl)-1-piperazineethanesulfonic acid (HEPES), pH 7.5, 150 mM sodium chloride and 1 mM DTT. All chromatography purification steps were performed using Äkta FPLC purification systems (GE Healthcare) or glass econo-columns (Bio-Rad) at room temperature.
(§7) Isothermal titration calorimetry (ITC) of peptides and ligands
(§8) Titrations were performed on an ITC200 micro-calorimeter (GE Healthcare). The peptides were dissolved in buffer (20 mM Bis–Tris propane, 100 mM NaCl, 1 mM tris(2-carboxyethyl)phosphine […]
(§9) (TCEP), pH 7.4) at 100 µM. The compounds were titrated against 10 µM VBC complex, equilibrated in the same buffer. The titrations consisted of 20 injections of 2 µL of peptide solution at a rate of 0.5 µL/s at 120 s time intervals. An initial injection of ligand (0.4 µL) was made and discarded during data analysis. All experiments were performed at 25°C while stirring at 650 rpm.
(§10) Ligands 14a- b were diluted from DMSO stock solution to 300 µM in buffer (20 mM Bis-Tris propane, 150 mM NaCl, 1 mM TCEP, pH 7.4). The compounds were titrated against 30 µM VBC complex, equilibrated in the same buffer. The final concentration of DMSO in each experiment was […]
(§11) The data were fitted to a single-binding-site model using the MicroCal PEAQ-ITC analysis software provided by the manufacturer to obtain the stoichiometry n, the dissociation constant K d, and the enthalpy of binding ΔH . The reported values are the mean ± s.e.m. from independent measurements.
(§12) Isothermal titration calorimetry (ITC)of PROTACs
(§13) The titrations were all performed as reverse mode (protein in syringe, ligand in cell) and consisted of 19 injections of 2 µl protein solution (20 mM Bis–Tris propane, 100 mM NaCl, 1 mM tris(2-carboxyethyl)phosphine (TCEP), pH 7.4) at a rate of 0.5 µl/s at 120 s time intervals. An initial injection (0.4 µl) was made and discarded during data analysis. […]

The next test addresses T2, VBC and Brd2BD1 (Homo sapiens, UniProt P25440+P40337).
T2 construct: VHL (54–213), ElonginC (17–112) and; Brd2BD1 (71–194),; His6 (N, cleaved yes); made in house; host or cells: E. coli BL21(DE3)
The experiment in a line: ITC ternary complex formation, VBC titrated into PROTAC:Brd2BD1. It counts as binding. The note with it: for α (cooperativity): Kd binary,VBC/Kd ternary; for α (cooperativity) / ΔΔG: Brd2BD1; for Kd / ΔG / ΔH / –TΔS: PROTAC:Brd2BD1 in cell, VBC in syringe; for ΔΔG: ternary vs binary.
From the text: as §1, §2, §3, §4, §5, §6, §7, §8, §9, §10, §11, §12, §13

Molecules are shown by their SMILES.

T2 sequence (P40337 54-213): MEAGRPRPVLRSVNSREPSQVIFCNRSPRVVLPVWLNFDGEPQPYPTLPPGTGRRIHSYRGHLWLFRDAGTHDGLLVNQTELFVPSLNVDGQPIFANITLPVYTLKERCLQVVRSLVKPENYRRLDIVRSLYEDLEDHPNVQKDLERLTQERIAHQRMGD
T2 sequence (Q15369 17-112 partner limits assumed): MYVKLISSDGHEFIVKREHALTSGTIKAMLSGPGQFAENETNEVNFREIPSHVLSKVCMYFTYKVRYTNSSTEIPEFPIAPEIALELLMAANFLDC
T2 sequence (Q15370 1-104 partner limits assumed): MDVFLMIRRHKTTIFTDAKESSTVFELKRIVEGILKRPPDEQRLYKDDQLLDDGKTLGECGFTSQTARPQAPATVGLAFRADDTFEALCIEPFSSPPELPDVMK
T2 sequence (P25440 71-194): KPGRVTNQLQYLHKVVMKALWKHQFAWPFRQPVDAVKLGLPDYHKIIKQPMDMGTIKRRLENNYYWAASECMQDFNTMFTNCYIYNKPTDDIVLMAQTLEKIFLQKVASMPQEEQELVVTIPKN
T1 sequence (P40337 54-213): as the sequence (P40337 54-213) above
T1 sequence (Q15369 17-112 partner limits assumed): as the sequence (Q15369 17-112 partner limits assumed) above
T1 sequence (Q15370 1-104 partner limits assumed): as the sequence (Q15370 1-104 partner limits assumed) above

Turning to `Cc1ncsc1-c1ccc(CNC(=O)[C@@H]2[C@@H](F)[C@@H](O)CN2C(=O)[C@@H](NC(=O)COCCOCCOCCNC(=O)C[C@@H]2N=C(c3ccc(Cl)cc3)c3c(sc(C)c3C)-n3c(C)nnc32)C(C)(C)C)cc1` [15a], on VBC, the ΔG is reported as -9.01 ± 0.02 kcal/mol, the ΔH was -7.9 ± 0.3 kcal/mol, the “–TΔS” value was -1.1 ± 0.2 kcal/mol and binding was characterised by a dissociation constant (Kd) of 249 ± 6 nM. On VBC and Brd2BD1, the “α (cooperativity)” value turned out to be 3.9, the Kd (commonly the constant that tells how readily two partners part at equilibrium) was found to be 64 ± 3 nM, the ΔG is -9.85 ± 0.05 kcal/mol and the ΔH is recorded as -9.17 kcal/mol. For the same compound, on VBC and Brd2BD1, the “–TΔS” value is recorded as -0.6 ± 0.6 kcal/mol and the ΔΔG is recorded as -0.85 kcal/mol.
With `Cc1ncsc1-c1ccc(CNC(=O)[C@@H]2[C@H](F)[C@@H](O)CN2C(=O)[C@@H](NC(=O)COCCOCCOCCNC(=O)C[C@@H]2N=C(c3ccc(Cl)cc3)c3c(sc(C)c3C)-n3c(C)nnc32)C(C)(C)C)cc1` [15b], the “fold weaker ligand for VBC” value at VBC (15b compared to 15a) is given as 2.5 fold. At VBC, the ΔG is recorded as -8.49 ± 0.07 kcal/mol, the ΔH is -5.0 ± 0.2 kcal/mol, the “–TΔS” value is -3.7 ± 0.2 kcal/mol and the Kd was determined as 603 ± 74 nM. At VBC and Brd2BD1, the “α (cooperativity)” value is 1.2, binding was characterised by a dissociation constant (Kd) of 500 ± 96 nM, the ΔG is reported as -8.6 ± 0.1 kcal/mol and the ΔH is -5.1 ± 0.2 kcal/mol. On VBC and Brd2BD1, the “–TΔS” value was -3.6 ± 0.3 kcal/mol and the ΔΔG is on record as -0.1 ± 0.1 kcal/mol.
